Laboratory results taken from PMC4640567, “Cinnamic Acid Bornyl Ester Derivatives from Valeriana wallichii Exhibit Antileishmanial In Vivo Activity in Leishmania major-Infected BALB/c Mice” (PLoS ONE, 2015).
Values joined by “and” are separate entries in the source; they are usually repeats but may differ in a detail not shown here. Equal entries are not always repeated.

Experiments:
[1] = test system: L. donovani promastigotes; test: MTT assay, L. donovani (AG83) promastigotes; format: cell-based; conditions: Leishmania donovani, tested at 10, 50, 100 μM, read-out: Cytotoxicity (μM) L. donovani promastigotes (IC50)
Method: L. donovani promastigotes (strain: MHOM/IN/1983/AG83) were obtained from the Indian Institute of Chemical Biology, Kolkata, India. Promastigotes were cultured in Schneider’s insect medium (Sigma-Aldrich Co., St. Louis, USA) as described elsewhere.
Antiparasitic activities of compounds 1 and 2 dissolved in dimethyl sulfoxide (DMSO, E. Merck, India) against L. donovani (AG83) promastigotes were determined by a quantitative colorimetric assay using the 3-(4, 5- dimethylthiazol-2-yl)-2, 5-diphenyl tetrazolium bromide (MTT) (Sisco Research Laboratory, Mumbai, India) test as described elsewhere. The compounds were tested at concentrations of 10 μM, 50 μM, and 100 μM and IC50 values (concentration of compound, which inhibited at least 50% cell metabolic activity) for each compound were determined from respective dose–response curves using Origin 5.0 software (Microcal Software, Inc., Northampton, MA, USA).

[2] = AlamarBlue cytotoxicity, BMDM; format: cell-based; conditions: bone marrow-derived macrophages (BMDM)
Method: (§1) BMDM were generated in complete RPMI medium as described previously. On day six, the cytotoxicity against 2 × 10^5 cells/ml was tested at increasing concentrations of compounds 1 and 2 for 48 h. Human embryonic kidney HEK 293 T cells (ATCC, Wesel, Germany) were cultured in Dulbecco´s Modified Eagle Medium (DMEM) (Life Technologies, Darmstadt, Germany), with 10% FCS (PAA Laboratories, Germany). According to the standard operating procedures (SOP) within the Collaborative Research Center 630 (SFB 630) 2 × 10^4 HEK 293 T cells/ml were tested at increasing concentrations of compounds 1 and 2 for 48 h. Human liver carcinoma HepG2 cells (ATCC) were cultured in RPMI medium (Gibco) with 10% FCS. 1 × 10^5 cells/ml HepG2 were tested at increasing concentrations of 1 and 2 for 72 h according to the SOPs. The AlamarBlue assay was performed as described above for L. major parasites.

[3] = AlamarBlue cytotoxicity, HepG2 cells; format: cell-based; conditions: human, read-out: Cytotoxicity (μM) HEP G2
Method: as §1

[4] = AlamarBlue cytotoxicity, HEK 293 T cells; format: cell-based; conditions: human
Method: as §1

L. major promastigotes [5] = test: Diff-Quik staining and transmitted light microscopy, cell morphology; format: cell-based, Leishmania major; conditions: 100 μM
Method: (§2) L. major parasites harvested from blood agar cultures were washed twice with Dulbecco’s phosphate-buffered saline (DPBS; Invitrogen, Darmstadt, Germany) and centrifuged at 3.000 × g for 10 min. The pellet was suspended in RPMI 1640 medium at a final concentration of 1 × 10^8 cells/ml. Cells were treated with 1% DMSO, 122.7 μM miltefosine (1-hexadecylphorylcholine; apoptosis inducer), or 100 μM of the tested compounds 1 and 2 in a final volume of 200 μl in 96 well plates. Samples were incubated at 27°C in 5% CO2 for several time points between 30 min and 24 h. Transmitted light microscopic, transmission electron microscopic (TEM), and flow cytometric techniques were used to find phenotypic patterns caused by the treatment with the tested compounds.
After incubation for 30 min, 1 h, 2 h, 4 h, and 24 h in the presence of the tested compounds 1 and 2, promastigotes were harvested and centrifuged in a Cytospin 3 centrifuge (Shandon, Frankfurt, Germany) on microscope slides at 253 × g for 5 min at room temperature (RT). Cytospin preparations of cells were stained using the Differential Quick Stain (Diff-Quik) dye (Medion Diagnostics AG, Duedingen, Switzerland), according to the manufacturers’ protocol with some modifications. Diff-Quik stains the leishmanial nuclei and the kinetoplasts dark purple and the cytoplasm light purple allowing the observation of phenotypic changes within the parasite. Briefly, air-dried cells were fixed by dipping the slides 5 times for 3 seconds in fixative solution. Subsequently the slides were stained with Solution I following Solution II (from Diff-Quik kit) and air-dried between each staining steps. Finally, the samples were rapidly dipped once in ultra-pure water (produced by a TKA purification system apparatus, Niederelbert, Germany) to remove excessive staining solutions. The air-dried cells were analyzed by transmitted light microscopy under a 50× objective on a Nikon ECLIPSE 50i microscope equipped with a digital camera (Nikon, Tokyo, Japan). The images were processed using NIS Elements D software (Nikon).

L. major promastigotes [6] = test: Transmission electron microscopy, mitochondrial swelling; format: cell-based, Leishmania major; conditions: 100 μM, 2 h
Method: as §2
L. major promastigotes were incubated for 2 h in the presence of DMSO, 100 μM of compound 1 and compound 2, respectively. After the incubation period, the parasites were harvested, contrasted and embedded following the procedure described previously. Ultrathin sections were mounted on 300-mesh grids, stained with uranyl acetate and lead citrate, and analyzed with an EM 10 transmission electron microscope (Carl Zeiss AG, Oberkochen, Germany). To describe morphological changes in a statistical manner, six photographs with approximately 50 cells were taken and the percentage of cells with swollen mitochondria per treatment was determined.

L. major promastigotes [7] = test: Annexin V / propidium iodide flow cytometry, cell death phenotype; format: cell-based, Leishmania major; conditions: 100 μM
Method: as §2
The loss of membrane integrity and translocation of phosphatidylserine (PS) to the outside of the cellular membrane can be determined by annexin V (AV) and propidium iodide (PI) staining. Double staining with AV-fluorescein isothiocyanate (FITC) and PI during flow cytometry analysis leads to discrimination between four populations: double negatives or alive cells (AV^-/PI^-), double positive or late necrotic/late apoptotic cells (AV^+/PI^+), PI-positive and AV-negative or early necrotic cells (AV^-/PI^+), and PI-negative and AV-positive or early apoptotic cells (AV^+/PI^-).
Parasites were harvested after incubation for 6 h, 10 h, and 24 h in the presence of compounds 1, 2 and miltefosine (Cayman Chemical Company, MI, USA), respectively, the latter serving as positive control for the induction of apoptotic cell death. DMSO was used as solvent control. Cell staining was performed using an AV-FITC Apoptosis detection kit (Sigma-Aldrich, Saint Louis, MO, USA). Cells were harvested, washed and suspended in 500 μL of binding buffer, 5 μL of AV-FITC and 10 μl of PI. The cells were incubated for 10 min in the dark at RT. Finally, stained samples were immediately analyzed by flow cytometry using MACSQuant analyzer or a flow cytometer (Becton Dickinson, San José, CA, USA).

L. donovani = test: Preliminary studies in L. donovani infected BALB/c mice; format: in vivo; conditions: need further evaluation

Compound | IC50 [1] [µM] | IC50 at 48 h [2] [µM] | IC50 at 72 h [3] [µM] | IC50 at 48 h [4] [µM] | Time after which vacuolization and changes in cell morphology were observable (L. major promastigotes [5]) | Counted parasites with mitochondrial swelling (TEM) (L. major promastigotes [6]) [%] | LL: live cells (AV-/PI-) (L. major promastigotes [7]; 6 h) [%] | LR: early apoptotic cells (AV+/PI-) (L. major promastigotes [7]; 6 h) [%] | UL: early necrotic cells (AV-/PI+) (L. major promastigotes [7]; 6 h) [%] | UR: necrotic/late apoptotic cells (AV+/PI+) (L. major promastigotes [7]; 6 h) [%] | LL: live cells (AV-/PI-) (L. major promastigotes [7]; 10 h) [%] | LR: early apoptotic cells (AV+/PI-) (L. major promastigotes [7]; 10 h) [%] | UL: early necrotic cells (AV-/PI+) (L. major promastigotes [7]; 10 h) [%] | UR: necrotic/late apoptotic cells (AV+/PI+) (L. major promastigotes [7]; 10 h) [%] | Induced cell death phenotype (per definition) (L. major promastigotes [7]; 24 h) | LL: live cells (AV-/PI-) (L. major promastigotes [7]; 24 h) | LR: early apoptotic cells (AV+/PI-) (L. major promastigotes [7]; 24 h) | UL: early necrotic cells (AV-/PI+) (L. major promastigotes [7]; 24 h) | UR: necrotic/late apoptotic cells (AV+/PI+) (L. major promastigotes [7]; 24 h) | Antileishmanial in vivo activity (L. donovani)
CC1(C)C2CCC1(C)C(OC(=O)CCc1ccccc1)C2 (single isomer, unassigned; (-)) [Compound 2, (-)-bornyl 3-phenylpropionate] | > 100 | > 100 | > 100 | > 100 | 1 h | 36 | 54.4 | 8.8 | 10.7 | 26.1 | 47.2 | 9.3 | 16.8 | 26.7 | miltefosine-like cell death | 21% and 20.6% | 19% and 18.5% | 24% and 24.2% | 37% and 36.7% | promising antileishmanial in vivo activities
CC1(C)C2CCC1(C)C(OC(=O)C=Cc1ccccc1)C2 (single isomer, unassigned; (-)) [Compound 1, (-)-Bornyl cinnamate] | 15.6 | 54.3 | > 100 | 83.1 | 30 min | 39 | 71.3 | 3.7 | 12.3 | 12.7 | 69.3 | 4.2 | 12.9 | 13.6 | necrotic cell death phenotype | 33% and 33.2% | 4.1% | 30% and 29.8% | 33% and 32.9% | promising antileishmanial in vivo activities
